Data as given in patent US10196357B2, “Biaryl compositions and methods for modulating a kinase cascade” (Athenex, Inc., priority 2007, dated 2019).
Where two headings read alike, the source gives them in different places.

Tests used:
HT29 cell line = experiment: BrdU cell growth inhibition, HT29; assay type: cell-based, human; details: for activity at 0.05 µM / activity at 0.5 µM / activity at 5 µM: HT-29, read-out: HT-29 Growth, % of Control Mean, n = 3; for activity at 0.05 µM: 50 nM; for activity at 0.5 µM: 500 nM
Experimental: (§1) The GI50s for several of the compounds of the invention were assayed as described herein.
The HT29 cell line is a NCI standard human colon carcinoma cell line.
(§2) In the BrdU Assay for cell growth inhibition, quantitation of cell proliferation was based on the measurement of BrdU incorporation during DNA synthesis. The Cell Proliferation ELISA BrdU assay kit (colorimetric) was obtained from Roche Applied Science and performed as per vendor instructions.
(§3) The growth inhibition (GI) is determined from the formula GI=(T0−Tn×100/T0−CONn) where T0 is the BrdU growth of untreated cells at time “0”, Tn is the BrdU growth of treated cells at day “n” and CONn is the control BrdU growth of control cells at day “n”. The GI50 was extrapolated and the data plotted using XL-Fit 4.0 software.
(§4) For 96 well culture plate experiments, c-Src 3T3 medium was supplemented with 10 mM HEPES buffer. HT-29 cells were seeded in standard tissue culture 96-well plates and c-Src 3T3 cells were seeded in 96-well plates coated with Poly-D-lysine (BIOCOAT™). To increase CO2 diffusion, c-Src 3T3 96-well plates were incubated with their lids raised by ˜2 mm using sterile rubber caps.
(§5) Samples were reconstituted in DMSO at 20 mM and intermediate dilutions made using DMEM containing 10% FBS. […] Plates were assayed for BrdU and the data analyzed as above for GI50.
(§6) All compounds were initially prepared as 20 mM DMSO stock solutions and then diluted into buffer for the in vitro tumor growth assays. NG means no cell growth beyond the control and T means the number of cells in the drug treated wells was less than in the control (i.e. net cell loss).
Growth Inhibition. […] T1 values≤T0 values were designated as T, cytotoxicity.

c-Src 3T3 cells = experiment: BrdU cell growth inhibition, c-Src 3T3; assay type: cell-based, mouse; details: for activity at 0.1 µM / activity at 1 µM / activity at 10 µM: NIH3T3, read-out: c-Src 3T3 Growth, % of Control Mean, n = 3; for activity at 0.1 µM: 100 nM; for GI50: c-Src 3T3 (c-Src527F/NIH3T3) cells
Experimental: as §1
The cells were routinely cultured in DMEM supplemented with Fetal Bovine Serum (2.0% v/V), L-glutamine (2 mM) and Sodium Pyruvate (1 mM).
as §2, §3, §4, §5, §6

[1] = Homo sapiens, HT-29, HT29 (Colon) cells, read-out: GI50

Row | SMILES | activity at 0.05 µM (HT29 cell line; Homo sapiens) | activity at 0.5 µM (HT29 cell line; Homo sapiens) | activity at 5 µM (HT29 cell line; Homo sapiens) | activity at 0.1 µM (c-Src 3T3 cells; Mus musculus) | activity at 1 µM (c-Src 3T3 cells; Mus musculus) | activity at 10 µM (c-Src 3T3 cells; Mus musculus) | GI50 (HT29 cell line; [1]) | GI50 (c-Src 3T3 cells; Mus musculus, read-out: GI50) | GI50 (c-Src 3T3 cells) | GI50 (HT29 cell line; HT29 (Colon) cells) | GI50 (HT29 cell line; HT29 (Colon) cells, read-out: GI50)
1 | CC(C)COc1cc(F)cc(CNC(=O)Cc2ccc(-c3ccc(N4CCOCC4)cc3)cn2)c1 [KX2-370] | 112% | 93% | 81% | 104% | 105% | 106% | – | – | – | – | –
2 | O=C(Cc1ccc(-c2ccccc2)cc1)Nc1cccc(F)c1 [KX1-308, N-(3-fluorophenyl)-4-biphenylacetamide] | 87.9% | 76.1% | 32.3% | 94.5% | 77.7% | 67.1% | – | – | – | – | –
3 | CN1CCN(CCOc2cc(OC3CCOCC3)c3c(Nc4c(Cl)ccc5c4OCO5)ncnc3c2)CC1 [AZD0530, reference compound] | – | – | – | – | – | – | 330 nM | 203 nM | – | – | –
4 | CCOc1ccc(-c2ccc(CC(=O)NCc3cc(F)cc(OCC(C)C)c3)nc2)cc1 [KX2-368] | 107% | 70% | < 0% | 99% | 101% | 27% | – | – | – | – | –
5 | O=C(Cc1ccc(-c2ccccc2)cc1)NCc1cc(O)cc(OCc2ccccc2)c1 [KX1-306] | 124% | < 0% | < 0% | 47% | < 0% | < 0% | – | – | – | – | –
6 | O=C(Cc1ccc(-c2ccccc2)cc1F)NCc1cccc(F)c1 [KX1-313, N-(3-fluorobenzyl)-4-phenyl-2-fluorophenylacetamide] | 80.2% | < 0% | < 0% | 91.6% | < 0% | < 0% | – | – | – | – | –
7 | CC(C)COc1cc(F)cc(CNC(=O)Cc2ccc(-c3ccc(OCCN4CCN(C)CC4)cc3)cn2)c1 [KX2-367] | 64% | 6% | < 0% | 102% | < 0% | < 0% | – | – | – | – | –
8 | O=C(Cc1ccc(-c2ccccn2)cc1)NCc1cccc(F)c1 [KX1-315, N-(3-Fluoro-benzyl)-2-(4-pyridin-2-yl-phenyl)-acetamide] | 66% | 50.3% | < 0% | 89.3% | 88.1% | < 0% | – | – | – | – | –
9 | O=C(Cc1ccc(-c2ccc(F)cc2)cc1)NCc1cccc(F)c1 [KX1-311, N-(3-fluorobenzyl)-4-(4-fluorophenyl)phenylacetamide] | 60.4% | < 0% | < 0% | 81.3% | < 0% | < 0% | – | – | – | – | –
10 | CCOc1ccccc1-c1ccc(CC(=O)NCc2cccc(F)c2)nc1 [KX2-360] | 91% | < 0% | < 0% | 106% | < 0% | < 0% | – | – | – | – | –
11 | CCOc1ccc(-c2ccc(CC(=O)NCc3cc(F)cc(N4CCCCC4)c3)nc2)cc1 [KX2-379] | 89% | 88% | < 0% | 106% | 104% | < 0% | – | – | – | – | –
12 | O=C(Cc1ccc(-c2ccc(CN3CCCCC3)cc2)cn1)NCc1cccc(F)c1 [KX2-364] | 105% | 80% | < 0% | 92% | 81% | < 0% | – | – | – | – | –
13 | O=C(Cc1ccc(-c2ccc(OCCN3CCCCC3)cc2)cn1)NCc1cccc(F)c1 [KX2-375] | 99% | < 0% | < 0% | < 0% | < 0% | < 0% | 354 nM | 206 nM | – | – | –
14 | CN1CCN(CCOc2ccc(-c3ccc(CC(=O)NCc4cccc(F)c4)nc3)cc2)CC1 [KX2-365] | 88% | < 0% | < 0% | 88% | < 0% | < 0% | 93 nM | 133 nM | – | – | –
15 | CN1CCN(c2ccc(-c3ccc(CC(=O)NCc4cccc(F)c4)nc3)cc2)CC1 [KX2-373] | 64% | < 0% | < 0% | 97% | < 0% | < 0% | 639 nM | 96 nM | – | – | –
16 | CC(C)COc1cc(F)cc(CNC(=O)Cc2ccc(-c3ccc(OCCN4CCOCC4)cc3)cn2)c1 [KX2-387] | – | – | – | – | – | – | 1860 nM | – | inactive | – | –

Row | SMILES | activity at 0.05 µM (HT29 cell line; Homo sapiens) | activity at 0.5 µM (HT29 cell line; Homo sapiens) | activity at 5 µM (HT29 cell line; Homo sapiens) | activity at 0.1 µM (c-Src 3T3 cells; Mus musculus) | activity at 1 µM (c-Src 3T3 cells; Mus musculus) | activity at 10 µM (c-Src 3T3 cells; Mus musculus) | GI50 (HT29 cell line; [1]) | GI50 (c-Src 3T3 cells; Mus musculus, read-out: GI50) | GI50 (c-Src 3T3 cells) | GI50 (HT29 cell line; HT29 (Colon) cells) | GI50 (HT29 cell line; HT29 (Colon) cells, read-out: GI50)
17 | O=C(Cc1ccc(-c2ccc(CN3CCOCC3)cc2)cn1)NCc1cccc(F)c1 [KX2-362] | 86% | < 0% | < 0% | 101% | < 0% | < 0% | 56 nM | 56 nM | – | – | –
18 | O=C(Cc1ccc(-c2ccc(CN3CCOCC3)cc2F)cn1)NCc1cccc(F)c1 [KX2-393] | – | – | – | – | – | – | 52 nM | 24 nM | – | – | –
19 | O=C(Cc1ccc(-c2ccc(OCCCN3CCCCC3)cc2)cn1)NCc1cccc(F)c1 [KX2-374] | 74% | 57% | < 0% | 110% | 84% | < 0% | – | – | – | – | –
20 | O=C(Cc1ccc(-c2ccc(OCCCN3CCOCC3)cc2)cn1)NCc1cccc(F)c1 [KX2-383] | – | – | – | – | – | – | 248 nM | 327 nM | – | – | –
21 | O=C(Cc1ccc(-c2cccc(F)c2)nc1)NCc1cccc(F)c1 [KX1-321, N-(3-Fluoro-benzyl)-2-[6-(3-fluoro-phenyl)-pyridin-3-yl]-acetamide] | 127% | 118% | 23.7% | 95.5% | 96.2% | 55.8% | – | – | – | – | –
22 | CCOc1ccc(-c2ccc(CC(=O)NCc3cc(F)cc(N4CCN(C)CC4)c3)nc2)cc1 [KX2-388] | – | – | – | – | – | – | 906 nM | > 1600 nM | – | – | –
23 | CC(C)COc1cc(F)cc(CNC(=O)Cc2ccc(-c3ccc(OCCN4CCCCC4)cc3)cn2)c1 [KX2-386] | – | – | – | – | – | – | – | 897 nM | – | inactive | –
24 | CCOc1ccc(-c2ccc(CC(=O)NCc3cc(F)cc(OCC4CCN(C)CC4)c3)nc2)cc1 [KX2-381] | 58% | < 0% | < 0% | 116% | < 0% | < 0% | 375 nM | 914 nM | – | – | –
25 | CS(=O)(=O)c1ccc(-c2ccc(CC(=O)NCc3cccc(F)c3)cn2)cc1 [KX1-326, N-(3-Fluoro-benzyl)-2-[6-(4-methanesulfonyl-phenyl)-pyridin-3-yl]-acetamide] | 65.4% | 73.2% | 43.7% | 92.2% | 87.3% | 55.7% | – | – | – | – | –
26 | O=C1[O][Pt]2([NH][C@@H]3CCCC[C@H]3[NH]2)[O]C1=O [oxaliplatin, reference compound] | – | – | – | – | – | – | – | – | – | – | 1480 nM
27 | O=C(Cc1ccc(-c2ccccc2)c(F)c1)NCc1cccc(F)c1 [KX1-319, N-(3-Fluoro-benzyl)-2-(2-fluoro-biphenyl-4-yl)-acetamide] | 101% | < 0% | < 0% | 88.2% | < 0% | < 0% | – | – | – | – | –
28 | CN(Cc1cccc(F)c1)C(=O)Cc1ccc(-c2ccccc2)cc1 [KX1-312, N-(3-fluorobenzyl)-N-methyl-4-biphenylacetamide] | 93.7% | 67.6% | 33.7% | 98.5% | 94.5% | 12.1% | – | – | – | – | –
29 | CCOc1ccc(-c2ccc(CC(=O)NCc3cccc(F)c3)c[n+]2[O-])cc1 [KX1-358, 2-[6-(4-Ethoxy-phenyl)-1-oxo-pyridin-3-yl]-N-(3-fluoro-benzyl)-acetamide] | – | – | – | 92.2% | 91.4% | 82.7% | – | – | – | – | –
30 | CC(C)COc1cc(F)cc(CNC(=O)Cc2ccc(-c3ccc(CN4CCN(C)CC4)cc3)cn2)c1 [KX2-385] | – | – | – | – | – | – | – | 232 nM | – | – | –
31 | O=C(Cc1ccc(-c2cc[n+]([O-])cc2)cc1)NCc1cccc(F)c1 [KX1-357] | – | – | – | 101% | 95.4% | 9% | – | – | – | – | –
